Publication PMC3825844 (Analytical biochemistry, 2013)

Key:
[1] = system: PXR-SRC (steroid receptor coactivator) tethered protein; settings: read-out: hypothetical Kd, circular dichroism; cited from earlier work
[2] = system: PXR protein (without SRC); settings: affinity selection-mass spectrometry; cited from earlier work
[3] = Solubility observed in TR-FRET assay dilution series; assay type: physicochemical; settings: at 100 μM, TR-FRET assay buffer, […] DMSO

| solubility in assay [3] | Compound | Kd [1] [nM] | Kd [2] [nM] |
| --- | --- | --- | --- |
| – | CO[C@H]1/C=C/O[C@@]2(C)Oc3c(C)c(O)c4c(O)c(c(/C=N/N5CCN(C)CC5)c(O)c4c3C2=O)NC(=O)/C(C)=C\C=C\[C@H](C)[C@H](O)[C@@H](C)[C@@H](O)[C@@H](C)[C@H](OC(C)=O)[C@@H]1C [Rifampicin, 3-(4-methylpiperazinyliminomethyl)rifamycin SV] | 540 | […] |
| incomplete solubility | Clc1ccccc1C(c1ccccc1)(c1ccccc1)n1ccnc1 [Clotrimazole, 1-[(2-chlorophenyl)diphenylmethyl]-1H-imidazole] | 290 | 330 |
